System: HCT116
Experiment: In vitro cytotoxicity measured by the cell colony formation assay
Type: cell-based
Conditions: HCT116 cells, 72 h drug incubation, colonies counted after 7 days; ID50 = drug concentration producing 50% inhibition of colony formation; read-out: IN VITRO ID 50 (nm) HCT116
Description: In Vitro Cytotoxicity Measured by the Cell Colony Formation Assay
Four hundred cells (HCT116) were plated in 60 mm Petri dishes containing 2.7 mL of medium (modified McCoy's 5a medium containing 10% fetal bovine serum and 100 units/mL penicillin and 100 µg/mL streptomycin). The cells were incubated in a CO2 incubator at 37° C. for 5 h for attachment to the bottom of Petri dishes. The compounds identified in Example 2 were made up fresh in medium at ten times the final concentration, and then 0.3 mL of this stock solution was added to the 2.7 mL of medium in the dish. The cells were then incubated with drugs for 72 h at 37° C. At the end of incubation the drug-containing media were decanted, the dishes were rinsed with 4 mL of Hank's Balance Salt Solution (HBSS), 5 mL of fresh medium was added, and the dishes were returned to the incubator for colony formation. The cell colonies were counted using a colony counter after incubation for 7 days.

Structure (SMILES) | IC50
CC(=O)O[C@@]12CO[C@@H]1C[C@H](O)[C@@]1(C)C(=O)[C@H](OC(=O)C3CC3)C3=C(C)[C@@H](OC(=O)[C@H](O)[C@@H](NC(=O)c4ccccc4)C4CC4)C[C@@](O)([C@@H](OC(=O)c4ccccc4)C12)C3(C)C (some centres unmarked) [Compound 0923] | < 1 nM
CC(=O)O[C@@]12CO[C@@H]1C[C@H](O)[C@@]1(C)C(=O)[C@H](OC(=O)C3CC3)C3=C(C)[C@@H](OC(=O)[C@H](O)[C@@H](NC(=O)c4ccccc4)c4ccccc4)C[C@@](O)([C@@H](OC(=O)c4ccccc4)C12)C3(C)C (some centres unmarked) [Compound 0937] | < 10 nM
CCCC(=O)O[C@H]1C(=O)[C@@]2(C)C([C@H](OC(=O)c3ccccc3)[C@]3(O)C[C@H](OC(=O)[C@H](O)[C@H](C=C(C)C)NC(=O)OC(C)(C)C)C(C)=C1C3(C)C)[C@]1(OC(C)=O)CO[C@@H]1C[C@@H]2O (some centres unmarked) [Compound 0947] | < 1 nM
CCCC(=O)O[C@H]1C(=O)[C@@]2(C)C([C@H](OC(=O)c3ccccc3)[C@]3(O)C[C@H](OC(=O)[C@H](O)[C@@H](NC(=O)OC(C)(C)C)c4ccccn4)C(C)=C1C3(C)C)[C@]1(OC(C)=O)CO[C@@H]1C[C@@H]2O (some centres unmarked) [Compound 0951] | < 1 nM
CCCC(=O)O[C@H]1C(=O)[C@@]2(C)C([C@H](OC(=O)c3ccccc3)[C@]3(O)C[C@H](OC(=O)[C@H](O)[C@@H](NC(=O)OC(C)(C)C)c4cccnc4)C(C)=C1C3(C)C)[C@]1(OC(C)=O)CO[C@@H]1C[C@@H]2O (some centres unmarked) [Compound 0966] | < 10 nM
CCCC(=O)O[C@H]1C(=O)[C@@]2(C)C([C@H](OC(=O)c3ccccc3)[C@]3(O)C[C@H](OC(=O)[C@H](O)[C@@H](NC(=O)OC(C)(C)C)c4ccncc4)C(C)=C1C3(C)C)[C@]1(OC(C)=O)CO[C@@H]1C[C@@H]2O (some centres unmarked) [Compound 0978] | < 1 nM
CCCC(=O)O[C@H]1C(=O)[C@@]2(C)C([C@H](OC(=O)c3ccccc3)[C@]3(O)C[C@H](OC(=O)[C@H](O)[C@@H](NC(=O)OC(C)(C)C)c4ccco4)C(C)=C1C3(C)C)[C@]1(OC(C)=O)CO[C@@H]1C[C@@H]2O (some centres unmarked) [Compound 0983] | < 1 nM
CCCC(=O)O[C@H]1C(=O)[C@@]2(C)C([C@H](OC(=O)c3ccccc3)[C@]3(O)C[C@H](OC(=O)[C@H](O)[C@@H](NC(=O)OC(C)(C)C)c4ccoc4)C(C)=C1C3(C)C)[C@]1(OC(C)=O)CO[C@@H]1C[C@@H]2O (some centres unmarked) [Compound 0999] | < 1 nM
CCCC(=O)O[C@H]1C(=O)[C@@]2(C)C([C@H](OC(=O)c3ccccc3)[C@]3(O)C[C@H](OC(=O)[C@H](O)[C@@H](NC(=O)OC(C)(C)C)c4cccs4)C(C)=C1C3(C)C)[C@]1(OC(C)=O)CO[C@@H]1C[C@@H]2O (some centres unmarked) [Compound 1003] | < 1 nM
CCCC(=O)O[C@H]1C(=O)[C@@]2(C)C([C@H](OC(=O)c3ccccc3)[C@]3(O)C[C@H](OC(=O)[C@H](O)[C@@H](NC(=O)OC(C)(C)C)c4ccsc4)C(C)=C1C3(C)C)[C@]1(OC(C)=O)CO[C@@H]1C[C@@H]2O (some centres unmarked) [Compound 1011] | < 1 nM
CCCC(=O)OC1C(=O)C2(C)C(O)CC3OCC3(OC(C)=O)C2C(OC(=O)c2ccccc2)C2(O)CC(OC(=O)C(O)C(NC(=O)OC(C)(C)C)C3CC3)C(C)=C1C2(C)C (centres unmarked) [Compound 1020] | < 1 nM
CCCC(=O)OC1C(=O)C2(C)C(O)CC3OCC3(OC(C)=O)C2C(OC(=O)c2ccccc2)C2(O)CC(OC(=O)C(O)C(NC(=O)OC(C)(C)C)C(C)C)C(C)=C1C2(C)C (centres unmarked) [Compound 1031] | < 10 nM
CCCC(=O)OC1C(=O)C2(C)C(O)CC3OCC3(OC(C)=O)C2C(OC(=O)c2ccccc2)C2(O)CC(OC(=O)C(O)C(NC(=O)OC(C)(C)C)C3CCC3)C(C)=C1C2(C)C (centres unmarked) [Compound 1044] | < 1 nM
CCCC(=O)OC1C(=O)C2(C)C(O)CC3OCC3(OC(C)=O)C2C(OC(=O)c2ccccc2)C2(O)CC(OC(=O)C(O)C(NC(=O)OC(C)(C)C)c3ccccc3)C(C)=C1C2(C)C (centres unmarked) [Compound 1060] | < 1 nM
CC(=O)OC12COC1CC(O)C1(C)C(=O)C(OC(=O)c3cccs3)C3=C(C)C(OC(=O)C(O)C(C=C(C)C)NC(=O)OC(C)(C)C)CC(O)(C(OC(=O)c4ccccc4)C21)C3(C)C (centres unmarked) [Compound 1879] | < 10 nM
CC(=O)OC12COC1CC(O)C1(C)C(=O)C(OC(=O)c3cccs3)C3=C(C)C(OC(=O)C(O)C(NC(=O)OC(C)(C)C)c4ccccn4)CC(O)(C(OC(=O)c4ccccc4)C21)C3(C)C (centres unmarked) [Compound 1883] | < 10 nM
CC(=O)OC12COC1CC(O)C1(C)C(=O)C(OC(=O)c3cccs3)C3=C(C)C(OC(=O)C(O)C(NC(=O)OC(C)(C)C)c4ccco4)CC(O)(C(OC(=O)c4ccccc4)C21)C3(C)C (centres unmarked) [Compound 1892] | < 1 nM
CC(=O)OC12COC1CC(O)C1(C)C(=O)C(OC(=O)c3cccs3)C3=C(C)C(OC(=O)C(O)C(NC(=O)OC(C)(C)C)c4cccs4)CC(O)(C(OC(=O)c4ccccc4)C21)C3(C)C (centres unmarked) [Compound 1900] | < 1 nM
CC(=O)OC12COC1CC(O)C1(C)C(=O)C(OC(=O)c3cccs3)C3=C(C)C(OC(=O)C(O)C(NC(=O)OC(C)(C)C)c4ccc([N+](=O)[O-])cc4)CC(O)(C(OC(=O)c4ccccc4)C21)C3(C)C (centres unmarked) [Compound 1911] | < 10 nM

Structure (SMILES) | IC50
CC(=O)OC12COC1CC(O)C1(C)C(=O)C(OC(=O)c3cccs3)C3=C(C)C(OC(=O)C(O)C(NC(=O)OC(C)(C)C)c4ccoc4)CC(O)(C(OC(=O)c4ccccc4)C21)C3(C)C (centres unmarked) [Compound 1923] | < 1 nM
CC(=O)OC12COC1CC(O)C1(C)C(=O)C(OC(=O)c3cccs3)C3=C(C)C(OC(=O)C(O)C(NC(=O)OC(C)(C)C)c4ccsc4)CC(O)(C(OC(=O)c4ccccc4)C21)C3(C)C (centres unmarked) [Compound 1939] | < 1 nM
CC(=O)OC12COC1CC(O)C1(C)C(=O)C(OC(=O)c3cccs3)C3=C(C)C(OC(=O)C(O)C(NC(=O)OC(C)(C)C)c4cccnc4)CC(O)(C(OC(=O)c4ccccc4)C21)C3(C)C (centres unmarked) [Compound 1948] | < 10 nM
CC(=O)OC12COC1CC(O)C1(C)C(=O)C(OC(=O)c3cccs3)C3=C(C)C(OC(=O)C(O)C(NC(=O)OC(C)(C)C)c4ccncc4)CC(O)(C(OC(=O)c4ccccc4)C21)C3(C)C (centres unmarked) [Compound 1954] | < 1 nM
CC(=O)OC12COC1CC(O)C1(C)C(=O)C(OC(=O)c3cccs3)C3=C(C)C(OC(=O)C(O)C(NC(=O)OC(C)(C)C)C(C)C)CC(O)(C(OC(=O)c4ccccc4)C21)C3(C)C (centres unmarked) [Compound 1964] | < 10 nM
CC(=O)OC12COC1CC(O)C1(C)C(=O)C(OC(=O)c3cccs3)C3=C(C)C(OC(=O)C(O)C(NC(=O)OC(C)(C)C)C4CCC4)CC(O)(C(OC(=O)c4ccccc4)C21)C3(C)C (centres unmarked) [Compound 1970] | < 10 nM
CC(=O)OC12COC1CC(O)C1(C)C(=O)C(OC(=O)c3cccs3)C3=C(C)C(OC(=O)C(O)C(NC(=O)OC(C)(C)C)c4ccccc4)CC(O)(C(OC(=O)c4ccccc4)C21)C3(C)C (centres unmarked) [Compound 1988] | < 10 nM
CC(=O)OC12COC1CC(O)C1(C)C(=O)C(OC(=O)c3ccco3)C3=C(C)C(OC(=O)C(O)C(C=C(C)C)NC(=O)OC(C)(C)C)CC(O)(C(OC(=O)c4ccccc4)C21)C3(C)C (centres unmarked) [Compound 2101] | < 1 nM
CC(=O)OC12COC1CC(O)C1(C)C(=O)C(OC(=O)c3ccco3)C3=C(C)C(OC(=O)C(O)C(NC(=O)OC(C)(C)C)c4ccccn4)CC(O)(C(OC(=O)c4ccccc4)C21)C3(C)C (centres unmarked) [Compound 2111] | < 1 nM
CC(=O)OC12COC1CC(O)C1(C)C(=O)C(OC(=O)c3ccco3)C3=C(C)C(OC(=O)C(O)C(NC(=O)OC(C)(C)C)c4cccnc4)CC(O)(C(OC(=O)c4ccccc4)C21)C3(C)C (centres unmarked) [Compound 2124] | < 10 nM
CC(=O)OC12COC1CC(O)C1(C)C(=O)C(OC(=O)c3ccco3)C3=C(C)C(OC(=O)C(O)C(NC(=O)OC(C)(C)C)c4ccncc4)CC(O)(C(OC(=O)c4ccccc4)C21)C3(C)C (centres unmarked) [Compound 2132] | < 1 nM
CC(=O)OC12COC1CC(O)C1(C)C(=O)C(OC(=O)c3ccco3)C3=C(C)C(OC(=O)C(O)C(NC(=O)OC(C)(C)C)c4ccco4)CC(O)(C(OC(=O)c4ccccc4)C21)C3(C)C (centres unmarked) [Compound 2142] | < 1 nM
CC(=O)OC12COC1CC(O)C1(C)C(=O)C(OC(=O)c3ccco3)C3=C(C)C(OC(=O)C(O)C(NC(=O)OC(C)(C)C)c4ccoc4)CC(O)(C(OC(=O)c4ccccc4)C21)C3(C)C (centres unmarked) [Compound 2159] | < 1 nM
CC(=O)OC12COC1CC(O)C1(C)C(=O)C(OC(=O)c3ccco3)C3=C(C)C(OC(=O)C(O)C(NC(=O)OC(C)(C)C)c4cccs4)CC(O)(C(OC(=O)c4ccccc4)C21)C3(C)C (centres unmarked) [Compound 2164] | < 1 nM
CC(=O)OC12COC1CC(O)C1(C)C(=O)C(OC(=O)c3ccco3)C3=C(C)C(OC(=O)C(O)C(NC(=O)OC(C)(C)C)c4ccsc4)CC(O)(C(OC(=O)c4ccccc4)C21)C3(C)C (centres unmarked) [Compound 2173] | < 1 nM
CC(=O)OC12COC1CC(O)C1(C)C(=O)C(OC(=O)c3ccco3)C3=C(C)C(OC(=O)C(O)C(NC(=O)OC(C)(C)C)C(C)C)CC(O)(C(OC(=O)c4ccccc4)C21)C3(C)C (centres unmarked) [Compound 2181] | < 10 nM
CC(=O)OC12COC1CC(O)C1(C)C(=O)C(OC(=O)c3ccco3)C3=C(C)C(OC(=O)C(O)C(NC(=O)OC(C)(C)C)C4CCC4)CC(O)(C(OC(=O)c4ccccc4)C21)C3(C)C (centres unmarked) [Compound 2199] | < 10 nM
CC(=O)OC12COC1CC(O)C1(C)C(=O)C(OC(=O)c3ccco3)C3=C(C)C(OC(=O)C(O)C(NC(=O)OC(C)(C)C)c4ccc([N+](=O)[O-])cc4)CC(O)(C(OC(=O)c4ccccc4)C21)C3(C)C (centres unmarked) [Compound 2202] | < 1 nM
CC(=O)OC12COC1CC(O)C1(C)C(=O)C(OC(=O)c3ccco3)C3=C(C)C(OC(=O)C(O)C(NC(=O)OC(C)(C)C)c4ccccc4)CC(O)(C(OC(=O)c4ccccc4)C21)C3(C)C (centres unmarked) [Compound 2212] | < 10 nM
